IC50 and solubility data for 15 compounds are collected here from ChEMBL document CHEMBL5029168, “Discovery of novel ID2 antagonists from pharmacophore-based virtual screening as potential therapeutics for glioma” (Bioorg Med Chem, 2021).

In one series the test system is Hs 683. The experiment in a line: Cytotoxicity against human Hs 683 cells assessed as reduction in cell viability incubated for 24 hrs by CCK8 assay. Type of series: functional, cell-based. As to conditions: Hs 683, 24 h.
A further series concerns U-87 MG. Description: Cytotoxicity against human U87 cells assessed as reduction in cell viability incubated for 24 hrs by CCK8 assay. The class given is functional, cell-based, U-87MG ATCC. (Formazan colour is commonly taken as a measure of viable cells.)
The subject of the next series is GL261. Description: Cytotoxicity against mouse GL261 cells assessed as reduction in cell viability incubated for 24 hrs by CCK8 assay. Type of series: functional, cell-based. As to conditions: GL261, 24 h.
The nature of series [1]: Aqueous solubility of compound at up to 80 uM measured after 10 mins by optical microscopic analysis. The class given is physicochemical. To be noted: buffer.

`Cc1ccc([C@H](O)CNC(=O)c2cccc(C)c2C)cc1`: the IC50 in the series with Hs 683 stood at 70.3 µM; with U-87 MG, 67.3 µM; in the series with GL261, 74.2 µM.
For `O=C(C1=C(O)C(=O)N(CCc2c[nH]c3ccccc23)[C@@H]1c1cccc(O)c1)c1ccc(Cl)cc1` the same measures were 60.8 µM, 54.3 µM and 57.3 µM.
Regarding `O=C(Cc1cccc2ccccc12)NNC(=O)Nc1cccc(Cl)c1`, the IC50 in the series with Hs 683, in the series with U-87 MG and in the series on GL261 was more than 100 µM in each case.
In the case of `Cc1ccc(NC(=O)C[C@H]2SC(NC(c3ccc(F)cc3)c3c(O)[nH]c(=O)[nH]c3=O)=NC2=O)cc1C` (stereo partly specified), the IC50 worked out at 40.8 µM with Hs 683, 46.5 µM in the series on U-87 MG and 47.9 µM with GL261.
The matching figures for `Cc1ccc(CNC(=O)Cn2c(CO)cnc2SCC(=O)Nc2ccc3c(c2)OCO3)cc1`: 41.5 µM, 37.8 µM and 50.1 µM.
For `COc1ccc(N2C(=O)C[C@H](C(=O)NC3CCCCC3)[C@H]2c2ccc(F)cc2)cc1` the same measures were 84.5 µM, 77.9 µM and 90.2 µM.
The matching figures for `COc1cccc2c1OC(c1ccc(F)cc1)N1N=C(c3ccccc3)CC21` (stereo unspecified): more than 100 µM, more than 100 µM and more than 100 µM.
Consider `CC1Oc2ccc(S(=O)(=O)Nc3ccc(CCC(=O)O)cc3)cc2NC1=O` (stereo unspecified), for which the IC50 with Hs 683 was 41.5 µM; in the series with U-87 MG it was 47.4 µM; with GL261, 52.5 µM.
For `COc1ccccc1[C@H](CNC(=O)CCc1c[nH]c2ccccc12)N1CCCC1` the same measures were more than 100 µM, more than 100 µM and 94.6 µM.
The matching figures for `COc1ccc(NS(=O)(=O)c2ccc(NC(=S)NC(=O)C(C)C)cc2)cc1`: 53.2 µM, 56.7 µM and 61.3 µM.
For `NC(=O)C1CCN(C(=O)c2ccc(CSc3nc4cccnc4n3Cc3ccccc3)cc2)CC1` the same measures were 62.3 µM, 60.3 µM and 56.7 µM.
Turning to `COc1ccc(Cn2c(SCC(=O)n3c4c(c5ccccc53)CCCC4)nc3ccccc32)cc1`, the IC50 came to 91.4 µM in the series on Hs 683, 88.5 µM in the series on U-87 MG and 90.4 µM in the series on GL261.
For `O=C(NCCc1ccccc1)c1ccc(N2C[C@@H]3C[C@H](C2)c2cccc(=O)n2C3)c(NS(=O)(=O)c2cccc(Cl)c2)c1` the same measures were 55.3 µM, 56.2 µM and 48.1 µM.
As to `Cc1ccc(CN2C(=O)[C@](O)(CC(=O)c3ccc4c(c3)OCO4)c3cc(Br)ccc32)cc1`, the solubility entry in series [1] was “Insoluble”. In addition, the IC50 in the series with Hs 683 was 18.7 µM; in the series with U-87 MG, 15.5 µM; in the series with GL261 it was 21.3 µM.
For `CCN(C(=O)[C@H](Cc1ccccc1)NS(=O)(=O)c1cccc2nsnc12)c1ccccc1`, the IC50 with Hs 683 came to 69.8 µM; in the series on U-87 MG, 66.3 µM; in the series on GL261, 60.6 µM.

As a reminder, the IC50 is the midpoint of a concentration-inhibition curve.
